Measured values from patent publication US20030109582A1, “Methods and compositions for stimulating secretions from paneth cells” (priority 2001, published 2003).

Tests used:
fecal Lactobacilli = assay: population density of viable Lactobacilli in stools of individuals with Crohn's disease; assay type: in vivo, human; conditions: after 1 week of L-isoleucine administration (dosed as in Example 2) added to low-residual formula diet; 9 hospitalized Crohn's disease individuals
Procedure: The population density of viable Lactobacilli in the stools of a group of 9 hospitalized individuals with Crohn's disease was measured before and after a course of L-isoleucine administration. Subjects in this group had been supported nutritionally exclusively by total parenteral nutrition (TPN) for more than one month. One week after a low-residual formula diet was introduced, L-isoleucine was added to the diet (dosed as in Example 2) during the fmal week of hospitalization. Yogurt and other fermented products were restricted as were antibiotics.

Crohn's disease patients = assay: L-isoleucine administration to Crohn's disease patients (CDAI, abdominal symptoms); assay type: in vivo, human; conditions: Four grams/day oral, 4 weeks
Procedure: L-isoleucine was administered to nine volunteer Crohn's disease patients with mild abdominal symptoms. Four grams/day of powdered L-isoleucine divided into two doses was orally administered for 4 weeks. The CDAI (Crohn's disease activity index—Best W, Beckel J, Singleton J, Kern F J, Development of a Crohn's Disease Activity Index: National Cooperative Crohn's Disease Study. Gastroenterology 1976; 70:439-44) was calculated at the beginning and following the fourth week of the L-isoleucine administration period. All medication regiments were fixed throughout the study period.

[1] = tested on: Human Paneth cells (isolated intact human crypts from ileum); secretions tested on Salmonella typhimurium phoP-; assay: human Paneth cell secretion assay (bactericidal activity of crypt secretions); assay type: cell-based; conditions: for % Bacterial Cell Killing: S. typhimurium
Description: An assay was developed utilizing Human Paneth cells, obtained from biopsy material. Substances were screened in vitro, by exposing the isolated human tissue material briefly, and assessing the release of antibiotic activity.
A human Paneth cell secretion assay was developed using isolated intact human crypts from ileum obtained after bowel surgery, following published techniques. About 700 isolated crypts obtained by disruption with EDTA, as estimated using a hemocytometer, were transferred into microfuge tubes. Crypts were then incubated in minimal essential media containing non-essential amino acids, with or without various substances (such as isoleucine) in a total volume of 0.5 ml for 30 min or 1 hour at 37° C. After incubation the tissue suspension was spum, and the supernatants collected 10 microliter aliquots were then mixed with either 500 or 1000 colony forming units (cfu) of Salmonella typhimurium phoP- and incubated for 1 hour at 37° C. Surviving bacteria were quantitated by plating on nutrient agar. Bactericidal assays were conducted in triplicate. Data were expressed as the percent bacteria killed under experimental conditions relative to those recovered from controls.

With `CC[C@H](C)[C@H](N)C(=O)O` [isoleucine, L(+)isoleucine] the “mean concentration of fecal Lactobacilli” value (fecal Lactobacilli) was “significantly increased”, the frequency of diarrhea (Crohn's disease patients; Crohn's disease patients) was “gradually decreased” and the stool consistency (Crohn's disease patients; Crohn's disease patients) was “improved”. For the same compound, the “mean CDAI at fourth week” value (Crohn's disease patients; two doses, nine Crohn's disease patients, mean CDAI at beginning 120) was 90, the “Bactericidal activity in secretions against S. typhimurium” value ([1]; crypts exposed to 250 microgram/ml for 1 hour) was “detected” and the “% Bacterial Cell Killing” value ([1]; crypts exposed to L(+)isoleucine 250 microgram/ml for 1 hour, relative to controls) was 63.7%. For the same compound, the “Surviving Bacteria” value ([1]; crypts exposed to L(+)isoleucine 250 microgram/ml for 1 hour, supernatant incubated with S. typhimurium 1 hour) was 140 ± 23, the “isoleucine-induced secretion effect, dose dependence” value ([1]; human Paneth cells, Salmonella typhimurium killing) was “dose dependent” and the “% Bacterial Cell Killing” value ([1]; isoleucine 5 μg/ml, 30 minutes) was 4.1%. For the same compound, the “% Bacterial Cell Killing” value ([1]; isoleucine 50 μg/ml, 30 minutes) was 22.5% and the “% Bacterial Cell Killing” value ([1]; isoleucine 500 μg/ml, 30 minutes) was 51.7%.
